What was measured:
Type in all cases: cell-based
[1] = tested on: Escherichia coli (E. coli); assay: Bacteriostatic effect of BAK with BBG/BBR: turbidity after 24 h incubation; set-up: key to Bakterienwachstum nach 24 h Inkubation: +: Bakterienwachstum nach 24 h Inkubation; -: kein Bakterienwachstum nach 24 h Inkubation
Description: (§1) Zur Untersuchung des Einflusses von BBG auf die bakteriostatische Wirkung wurden Bakterien 24 h mit erfindungsgemäßen Zusammensetzungen, Benzalkoniumchlorid (BAK) und Octenidin (Oct) als Bakteriostatikum enthielten, inkubiert. Wenn sich die Inkubationsmischung trübte, wurde das als Bakterienwachstum interpretiert. Zum Vergleich wurde Brillantblau R (BBR) anstelle von BBG eingesetzt. Die Ergebnisse sind in den Tabellen 1-4 wiedergegeben. Tabelle 1: Einfluss von BBG und BBR auf die bakteriostatische Wirkung von BAK gegenüber Escherichia coli (E. coli), + = Bakterienwachstum nach 24 h Inkubation, - = kein Bakterienwachstum nach 24 h Inkubation, R = Brillantblau R (BBR), G = Brillantblau G (BBG).

Bacillus megaterium = assay: Bacteriostatic effect of Octenidin with BBG: turbidity after 24 h incubation; set-up: key: +: Bakterienwachstum nach 24 h Inkubation; -: kein Bakterienwachstum nach 24 h Inkubation
Description: as §1
(§2) Tabelle 4: Einfluss von BBG auf die bakteriostatische Wirkung von Octenidin (Oct) gegenüber Gram-positiven Bakterien., + = Bakterienwachstum nach 24 h Inkubation, - = kein Bakterienwachstum nach 24 h Inkubation, +/- = geringes Wachstum nach 24 h Inkubation, BBG = Brillantblau G.

Bacillus subtilis = assay: as above; set-up: key: +: Bakterienwachstum nach 24 h Inkubation; -: kein Bakterienwachstum nach 24 h Inkubation
Description: as §1, §2

[2] = tested on: Clavibacter michiganensis; assay: as above; set-up: key: +: Bakterienwachstum nach 24 h Inkubation; -: kein Bakterienwachstum nach 24 h Inkubation
Description: as §1, §2

Paenibacillus sp. = assay: as above; set-up: key: +: Bakterienwachstum nach 24 h Inkubation; -: kein Bakterienwachstum nach 24 h Inkubation
Description: as §1, §2

CCOc1ccc(Nc2ccc(C(=C3C=CC(=[N+](CC)Cc4cccc(S(=O)(=O)[O-])c4)C=C3C)c3ccc(N(CC)Cc4cccc(S(=O)(=O)O)c4)cc3C)cc2)cc1 [BBG, Brillantblau G]
Bakterienwachstum nach 24 h Inkubation ([1]; 0,007% G + BAK 0,01%): - | Bakterienwachstum nach 24 h Inkubation ([1]; 0,007% G + BAK 0,001 %): + | Bakterienwachstum nach 24 h Inkubation ([1]; 0,007% G + BAK 0,0016%): + | Bakterienwachstum nach 24 h Inkubation ([1]; 0,007% G + BAK 0,0025%): + | Bakterienwachstum nach 24 h Inkubation ([1]; 0,007% G + BAK 0,004%): - | Bakterienwachstum nach 24 h Inkubation ([1]; 0,007% G + BAK 0,006%): - | Bakterienwachstum nach 24 h Inkubation ([1]; 0,015% G + BAK 0,01%): - | Bakterienwachstum nach 24 h Inkubation ([1]; 0,015% G + BAK 0,001 %): + | Bakterienwachstum nach 24 h Inkubation ([1]; 0,015% G + BAK 0,0016%): + | Bakterienwachstum nach 24 h Inkubation ([1]; 0,015% G + BAK 0,0025%): + | Bakterienwachstum nach 24 h Inkubation ([1]; 0,015% G + BAK 0,004%): + | Bakterienwachstum nach 24 h Inkubation ([1]; 0,015% G + BAK 0,006%): - | Bakterienwachstum nach 24 h Inkubation ([1]; 0,030% G + BAK 0,01%): + | Bakterienwachstum nach 24 h Inkubation ([1]; 0,030% G + BAK 0,001 %): + | Bakterienwachstum nach 24 h Inkubation ([1]; 0,030% G + BAK 0,0016%): + | Bakterienwachstum nach 24 h Inkubation ([1]; 0,030% G + BAK 0,0025%): + | Bakterienwachstum nach 24 h Inkubation ([1]; 0,030% G + BAK 0,004%): + | Bakterienwachstum nach 24 h Inkubation ([1]; 0,030% G + BAK 0,006%): + | Bakterienwachstum nach 24 h Inkubation ([1]; 0,030% G, Kein BAK): + | Einfluss auf die bakteriostatische Wirkung von BAK ([1]; Gram-negative Bakterien (E. coli), concentration dependent): einen etwas größeren Einfluss als BBR | Einfluss auf das Bakterienwachstum ([1]; dye alone, no BAK (rechte Spalte, Tabelle 1)): beeinflussen das Bakterienwachstum nicht | Bakterienwachstum nach 24 h Inkubation (Bacillus megaterium; 0,007% BBG + Octenidin 0,01%): - | Bakterienwachstum nach 24 h Inkubation (Bacillus megaterium; 0,007% BBG + Octenidin 0,002%): - | Bakterienwachstum nach 24 h Inkubation (Bacillus megaterium; 0,007% BBG + Octenidin 0,003%): - | Bakterienwachstum nach 24 h Inkubation (Bacillus megaterium; 0,007% BBG + Octenidin 0,005%): - | Bakterienwachstum nach 24 h Inkubation (Bacillus megaterium; 0,007% BBG + Octenidin 0,007%): - | Bakterienwachstum nach 24 h Inkubation (Bacillus megaterium; 0,007% BBG + Octenidin 0,009%): - | Bakterienwachstum nach 24 h Inkubation (Bacillus megaterium; 0,007% BBG, Octenidin 0%): + | Bakterienwachstum nach 24 h Inkubation (Bacillus megaterium; 0,015% BBG + Octenidin 0,01%): - | Bakterienwachstum nach 24 h Inkubation (Bacillus megaterium; 0,015% BBG + Octenidin 0,002%): + | Bakterienwachstum nach 24 h Inkubation (Bacillus megaterium; 0,015% BBG + Octenidin 0,005%): - | Bakterienwachstum nach 24 h Inkubation (Bacillus megaterium; 0,015% BBG + Octenidin 0,007%): - | Bakterienwachstum nach 24 h Inkubation (Bacillus megaterium; 0,015% BBG + Octenidin 0,009%): - | Bakterienwachstum nach 24 h Inkubation (Bacillus megaterium; 0,015% BBG, Octenidin 0%): + | Bakterienwachstum nach 24 h Inkubation (Bacillus megaterium; 0,030% BBG + Octenidin 0,01%): - | Bakterienwachstum nach 24 h Inkubation (Bacillus megaterium; 0,030% BBG + Octenidin 0,002%): + | Bakterienwachstum nach 24 h Inkubation (Bacillus megaterium; 0,030% BBG + Octenidin 0,003%): + | Bakterienwachstum nach 24 h Inkubation (Bacillus megaterium; 0,030% BBG + Octenidin 0,009%): - | Bakterienwachstum nach 24 h Inkubation (Bacillus megaterium; 0,030% BBG, Octenidin 0%): + | Bakterienwachstum nach 24 h Inkubation (Bacillus subtilis; 0,007% BBG + Octenidin 0,01%): - | Bakterienwachstum nach 24 h Inkubation (Bacillus subtilis; 0,007% BBG + Octenidin 0,002%): + | Bakterienwachstum nach 24 h Inkubation (Bacillus subtilis; 0,007% BBG + Octenidin 0,003%): - | Bakterienwachstum nach 24 h Inkubation (Bacillus subtilis; 0,007% BBG + Octenidin 0,005%): - | Bakterienwachstum nach 24 h Inkubation (Bacillus subtilis; 0,007% BBG + Octenidin 0,007%): - | Bakterienwachstum nach 24 h Inkubation (Bacillus subtilis; 0,007% BBG + Octenidin 0,009%): - | Bakterienwachstum nach 24 h Inkubation (Bacillus subtilis; 0,007% BBG, Octenidin 0%): + | Bakterienwachstum nach 24 h Inkubation (Bacillus subtilis; 0,015% BBG + Octenidin 0,01%): - | Bakterienwachstum nach 24 h Inkubation (Bacillus subtilis; 0,015% BBG + Octenidin 0,002%): + | Bakterienwachstum nach 24 h Inkubation (Bacillus subtilis; 0,015% BBG + Octenidin 0,003%): + | Bakterienwachstum nach 24 h Inkubation (Bacillus subtilis; 0,015% BBG + Octenidin 0,005%): - | Bakterienwachstum nach 24 h Inkubation (Bacillus subtilis; 0,015% BBG + Octenidin 0,007%): - | Bakterienwachstum nach 24 h Inkubation (Bacillus subtilis; 0,015% BBG + Octenidin 0,009%): - | Bakterienwachstum nach 24 h Inkubation (Bacillus subtilis; 0,015% BBG, Octenidin 0%): + | Bakterienwachstum nach 24 h Inkubation (Bacillus subtilis; 0,030% BBG + Octenidin 0,01%): - | Bakterienwachstum nach 24 h Inkubation (Bacillus subtilis; 0,030% BBG + Octenidin 0,002%): + | Bakterienwachstum nach 24 h Inkubation (Bacillus subtilis; 0,030% BBG + Octenidin 0,003%): + | Bakterienwachstum nach 24 h Inkubation (Bacillus subtilis; 0,030% BBG + Octenidin 0,005%): + | Bakterienwachstum nach 24 h Inkubation (Bacillus subtilis; 0,030% BBG + Octenidin 0,007%): + | Bakterienwachstum nach 24 h Inkubation (Bacillus subtilis; 0,030% BBG + Octenidin 0,009%): - | Bakterienwachstum nach 24 h Inkubation (Bacillus subtilis; 0,030% BBG, Octenidin 0%): + | Bakterienwachstum nach 24 h Inkubation ([2]; 0,007% BBG + Octenidin 0,01%): - | Bakterienwachstum nach 24 h Inkubation ([2]; 0,007% BBG + Octenidin 0,002%): + | Bakterienwachstum nach 24 h Inkubation ([2]; 0,007% BBG + Octenidin 0,003%): - | Bakterienwachstum nach 24 h Inkubation ([2]; 0,007% BBG + Octenidin 0,005%): - | Bakterienwachstum nach 24 h Inkubation ([2]; 0,007% BBG + Octenidin 0,007%): - | Bakterienwachstum nach 24 h Inkubation ([2]; 0,007% BBG + Octenidin 0,009%): - | Bakterienwachstum nach 24 h Inkubation ([2]; 0,007% BBG, Octenidin 0%): + | Bakterienwachstum nach 24 h Inkubation ([2]; 0,015% BBG + Octenidin 0,01%): - | Bakterienwachstum nach 24 h Inkubation ([2]; 0,015% BBG + Octenidin 0,002%): + | Bakterienwachstum nach 24 h Inkubation ([2]; 0,015% BBG + Octenidin 0,003%): + | Bakterienwachstum nach 24 h Inkubation ([2]; 0,015% BBG + Octenidin 0,005%): - | Bakterienwachstum nach 24 h Inkubation ([2]; 0,015% BBG + Octenidin 0,007%): - | Bakterienwachstum nach 24 h Inkubation ([2]; 0,015% BBG + Octenidin 0,009%): - | Bakterienwachstum nach 24 h Inkubation ([2]; 0,015% BBG, Octenidin 0%): + | Bakterienwachstum nach 24 h Inkubation ([2]; 0,030% BBG + Octenidin 0,01%): - | Bakterienwachstum nach 24 h Inkubation ([2]; 0,030% BBG + Octenidin 0,002%): + | Bakterienwachstum nach 24 h Inkubation ([2]; 0,030% BBG + Octenidin 0,003%): + | Bakterienwachstum nach 24 h Inkubation ([2]; 0,030% BBG + Octenidin 0,005%): + | Bakterienwachstum nach 24 h Inkubation ([2]; 0,030% BBG + Octenidin 0,007%): + | Bakterienwachstum nach 24 h Inkubation ([2]; 0,030% BBG + Octenidin 0,009%): - | Bakterienwachstum nach 24 h Inkubation ([2]; 0,030% BBG, Octenidin 0%): + | Bakterienwachstum nach 24 h Inkubation (Paenibacillus sp.; 0,007% BBG + Octenidin 0,01%): - | Bakterienwachstum nach 24 h Inkubation (Paenibacillus sp.; 0,007% BBG + Octenidin 0,002%): - | Bakterienwachstum nach 24 h Inkubation (Paenibacillus sp.; 0,007% BBG + Octenidin 0,003%): - | Bakterienwachstum nach 24 h Inkubation (Paenibacillus sp.; 0,007% BBG + Octenidin 0,005%): - | Bakterienwachstum nach 24 h Inkubation (Paenibacillus sp.; 0,007% BBG + Octenidin 0,007%): - | Bakterienwachstum nach 24 h Inkubation (Paenibacillus sp.; 0,007% BBG + Octenidin 0,009%): - | Bakterienwachstum nach 24 h Inkubation (Paenibacillus sp.; 0,007% BBG, Octenidin 0%): + | Bakterienwachstum nach 24 h Inkubation (Paenibacillus sp.; 0,015% BBG + Octenidin 0,01%): - | Bakterienwachstum nach 24 h Inkubation (Paenibacillus sp.; 0,015% BBG + Octenidin 0,002%): + | Bakterienwachstum nach 24 h Inkubation (Paenibacillus sp.; 0,015% BBG + Octenidin 0,003%): + | Bakterienwachstum nach 24 h Inkubation (Paenibacillus sp.; 0,015% BBG + Octenidin 0,005%): - | Bakterienwachstum nach 24 h Inkubation (Paenibacillus sp.; 0,015% BBG + Octenidin 0,007%): - | Bakterienwachstum nach 24 h Inkubation (Paenibacillus sp.; 0,015% BBG + Octenidin 0,009%): - | Bakterienwachstum nach 24 h Inkubation (Paenibacillus sp.; 0,015% BBG, Octenidin 0%): + | Bakterienwachstum nach 24 h Inkubation (Paenibacillus sp.; 0,030% BBG + Octenidin 0,01%): - | Bakterienwachstum nach 24 h Inkubation (Paenibacillus sp.; 0,030% BBG + Octenidin 0,002%): + | Bakterienwachstum nach 24 h Inkubation (Paenibacillus sp.; 0,030% BBG + Octenidin 0,003%): + | Bakterienwachstum nach 24 h Inkubation (Paenibacillus sp.; 0,030% BBG + Octenidin 0,005%): + | Bakterienwachstum nach 24 h Inkubation (Paenibacillus sp.; 0,030% BBG + Octenidin 0,007%): + | Bakterienwachstum nach 24 h Inkubation (Paenibacillus sp.; 0,030% BBG + Octenidin 0,009%): + | Bakterienwachstum nach 24 h Inkubation (Paenibacillus sp.; 0,030% BBG, Octenidin 0%): +

Source: EP3041353B1, “COMPOSITIONS COMPRISING BACTERIOSTATIC AGENTS AND BRILLIANT BLUE G” (priority 2013, dated 2015)
